Measurements taken from paper PMC7822874, “Chemoprotective antimalarials identified through quantitative high-throughput screening of Plasmodium blood and liver stage parasites” (Scientific Reports, 2021).

What follows are molecules tested on Plasmodium falciparum Dd2 asexual blood stage parasites (assay: microbe, parasite or virus in culture). Settings: Plasmodium falciparum, DD2, Erythrocyte, 72 h.
Parameters: species or system Plasmodium falciparum Dd2 in human erythrocytes; single determination (one 11-point concentration-response curve)

SMILES	AC50 [µM]
O=C(CN(C(=O)c1cccc([N+](=O)[O-])c1)C1CCCCC1)Nc1ccc(Cl)c([N+](=O)[O-])c1 [MLS000560351-01]	13.3

Same assay, conditions: Plasmodium falciparum, DD2, Erythrocyte, 72 h; read-out: AC50

SMILES	AC50 [µM]
CC(C)N1CC=C(c2c[nH]c3ccccc23)CC1 [MLS000093714-01]	10.6
Cc1ccc(CSC2=Nc3ccccc3C3=NC(CC(=O)NCc4ccco4)C(=O)N23)cc1 (stereo not shown) [MLS000094891-01]	6.68
CCNc1nc(NCc2ccccc2)nc(Oc2ccc(=O)[nH]n2)n1 [MLS000097254-01]	2.11
OC(CNCC(c1ccco1)N1CCCCC1)c1ccccc1 (stereo not shown) [MLS000097545-01]	5.96
CCCOC(=O)c1ccc(-c2c(C)noc2-c2ccc(OC)cc2O)o1 [MLS000097856-01]	1.88
Cc1nc2sc(C(c3ccco3)N3CCN(C(c4ccccc4)c4ccccc4)CC3)c(O)n2n1 (stereo not shown) [MLS000101802-01]	5.96
Cc1cccc(N2CCN(c3cccc(C)c3)C2c2cccnc2)c1 [MLS000105583-01]	5.96
Oc1ccc(Br)cc1CN1CCN(c2ccccc2)CC1 [MLS000106609-01]	2.11
CCN(CC)CC(O)COc1ccccc1C(=O)CCc1ccccc1 (stereo not shown) [MLS000107538-01]	1.5
N=c1c2c(n(Cc3ccc(F)cc3)c3c1CCC3)CCC2 [MLS000107591-01]	3.35
N#Cc1c2c(c(NCc3ccco3)n3c1nc1ccccc13)CCC2 [MLS000109113-01]	2.37
CCCCOc1ccc(NC2=NC(N)=NC3(CCCCC3)N2)cc1 [MLS000109806-01]	8.41
Cc1cc(N2CCC(C)CC2)nc(-n2nc(C)cc2C)n1 [MLS000109839-01]	2.99
CCOC(=O)c1ccccc1NC(=O)C(C)Oc1ccccc1 (stereo not shown) [MLS000109889-01]	10.6
CCOC(=O)c1[nH]c(Cc2[nH]c(C(=O)OCC)c(C)c2CCC(=O)OC)c(CCC(=O)OC)c1C [MLS000111116-01]	5.31
CC1=CC(C)(C)Nc2ccc(OC(=O)c3cccnc3)cc21 [MLS000111190-01]	13.3
CCn1c(N2CCC(C)CC2)nc2c1c(=O)n(C)c(=O)n2C [MLS000115844-01]	5.96
Cc1cc(Nc2ccc(C(C)C)cc2)n2ncnc2n1 [MLS000116597-01]	4.22
COc1ccc(Nc2cc(C)nc3nc(C)nn23)cc1Cl [MLS000116613-01]	16.8
Cc1cc(Nc2ccc(C)c(C)c2)n2nc(C)nc2n1 [MLS000116616-01]	4.73
Cc1cc(Nc2ccc(Br)cc2)n2nc(C)nc2n1 [MLS000116653-01]	7.5

SMILES	AC50 [µM]
Cc1cc(NCc2ccco2)nc2cc(O)ccc12 [MLS000118315-01]	6.68
O=C(NC1CC1)c1ccc(CSCc2cccc(F)c2)o1 [MLS000120194-01]	8.41
COc1ccc(N(CC(=O)NCc2ccccc2)C(=O)CCC(=O)Nc2cc(C)ccn2)c(OC)c1 [MLS000121471-01]	10.6
Nc1ccc2oc(-c3ccc4[nH]cnc4c3)nc2c1 [MLS000121646-01]	13.3
CCC(C)(C)n1nnnc1C(c1cccnc1)N1CCN(c2cccc(C(F)(F)F)c2)CC1 (stereo not shown) [MLS000122548-01]	6.68
CC(O)CNCCNCc1c(OCc2ccccc2)ccc2ccccc12 (stereo not shown) [MLS000324858-01]	8.41
COc1cc(Br)c(C(C)NC(=O)c2cccc(Br)c2)cc1OC (stereo not shown) [MLS000325399-01]	2.11
N#Cc1cc(C#N)c(N2CCN(c3cccc(Cl)n3)CC2)nc1N [MLS000325470-01]	3.35
COc1cccc(/C(C#N)=C/c2c(-c3ccc(Cl)cc3)nc3c(C)cccn23)c1 [MLS000326878-01]	5.96
COc1ccc(C)cc1NCc1cc(=O)oc2cc(-c3ccccc3)c(O)cc12 [MLS000331048-01]	5.31
Cc1cc(C)c(S(=O)(=O)n2ccc(-c3ccc(OCCN(C)c4ccccn4)cc3)n2)c(C)c1 [MLS000331310-01]	7.5
CC(C)Cn1c(-c2ccco2)nc2c(c(=O)c3ccccc3n2C)c1=O [MLS000331990-01]	9.44
CCOc1ccc(-n2c(SCC(N)=O)nc3sc4c(c3c2=O)CCN(C)C4)cc1 [MLS000332254-01]	15
CC12CC3CC(C)(C1)CC(Nc1nc(N4CCOCC4)nc4ccccc14)(C3)C2 [MLS000332322-01]	9.44
OC(CNC1CCCc2ccccc21)COc1c(Cl)cccc1Cl (stereo not shown) [MLS000334339-01]	1.68
NC(=O)C1CCN(CC(=O)Nc2cccc(C(=O)Nc3cccc(C(F)(F)F)c3)c2)CC1 [MLS000334956-01]	6.68
CCOC(=O)c1c(NC(=O)CSc2nc3ccccc3c(=O)n2-c2ccccc2)sc(C(C)=O)c1C [MLS000335169-01]	13.3
Cc1cccc(CN2CCN(C(=O)CCl)CC2)c1 [MLS000336096-01]	13.3
CCOc1ccccc1NC(C)C(=O)Nc1cc(C(F)(F)F)ccc1N1CCOCC1 (stereo not shown) [MLS000336343-01]	2.66
CCN(CC)c1ccc(NC(=O)COc2ccccc2C#N)cc1S(=O)(=O)Nc1ccccc1OC [MLS000339599-01]	7.5
O=C(NC1=C(Nc2ccc(F)cc2)C(=O)c2ccccc2C1=O)c1ccc(Cl)cc1 [MLS000375026-01]	0.841

SMILES	AC50 [µM]
O=C(NC1=C(Nc2ccc(Cl)cc2)C(=O)c2ccccc2C1=O)c1ccccc1 [MLS000375030-01]	0.473
CCOc1ccc(NC(=O)Nc2cc(OCC(F)(F)F)cc(OCC(F)(F)F)c2)cc1 [MLS000391697-01]	13.3
CCOc1ccc2c(c1)OC(c1ccc(C)cc1)(C(F)(F)F)NC2=O (stereo not shown) [MLS000392832-01]	2.66
COc1ccc(S(=O)(=O)N2CCCCCC2)cc1NC(=O)c1c2c(nc3ccccc13)CCN(Cc1ccccc1)C2 [MLS000393062-01]	4.73
COc1ccc(NS(=O)(=O)c2cc(NC(=O)/C=C/c3cc(OC)c(OC)c(OC)c3)ccc2N2CCCCC2)cc1 [MLS000394995-01]	6.68
COCCN(CCOC)c1nc(N)c2c(N)nc3c(c2c1C#N)CC(=O)N3Cc1ccc(Cl)cc1 [MLS000402239-01]	5.96
O=C(c1cc(C(=O)NCc2ccccc2)c(=O)n(Cc2ccccc2)c1)c1cc(Br)ccc1O [MLS000402314-01]	4.73
COc1ccc(-c2cc(=O)c3cc(C)ccc3[nH]2)cc1 [MLS000517811-01]	10.6
O=c1cc(-c2ccccc2)[nH]c2ccc(F)cc12 [MLS000517821-01]	5.96
CC(=O)c1c(S)nc(-c2ccccc2)nc1N1CCN(C)CC1 [MLS000519428-01]	5.96
Cc1ccc(C(=O)N/N=C/c2ccc([N+](=O)[O-])s2)cc1 [MLS000519463-01]	5.96
CCN(CC)c1cc(C)c2cc(NC(=O)c3ccc(Br)o3)ccc2n1 [MLS000519820-01]	6.68
CCOC(=O)c1cc(C)n(Cc2ccc(OCC)c(OC)c2)c1C [MLS000521227-01]	10.6
CCOC(=O)c1c(CN2CCCCC2)n(C)c2cc(Br)c(O)cc12 [MLS000523143-01]	7.5
Cc1cc(C)n(CC(O)COc2ccccc2)n1 (stereo not shown) [MLS000525359-01]	13.3
O=c1oc2ccccc2c(N2CCCCC2)c1CN1CCCC1 [MLS000525481-01]	9.44
Cc1ccc2c(c1)c1c3n2CCCN(Cc2ccccc2)C3CCC1 (stereo not shown) [MLS000525489-01]	4.22
CC(=O)Oc1ccc2ccccc2c1C(NC(=O)C(C)C)c1cccc([N+](=O)[O-])c1 (stereo not shown) [MLS000526079-01]	16.8
CC(C)(C)n1nnnc1C(c1cccnc1)N(Cc1ccccc1)Cc1ccco1 (stereo not shown) [MLS000528003-01]	5.31
CC(C)(C)c1ccc(CN(Cc2ccccc2)C(c2ccccn2)c2nnnn2C(C)(C)C)cc1 (stereo not shown) [MLS000529130-01]	4.73
COc1ccc2[nH]c(C)c(CCN(Cc3cccs3)C(S)=Nc3ccc(F)cc3)c2c1 [MLS000529849-01]	4.22

SMILES	AC50 [µM]
Oc1ccc(Cl)cc1CN1CCN(Cc2ccccc2)CC1 [MLS000530315-01]	0.944
CCN1CCN(Cc2cc(Br)cc(Br)c2O)CC1 [MLS000530316-01]	7.5
CC(C)(C)n1[nH]c2c3c(ccc2c1=O)C(=O)c1ccccc1C3=O [MLS000530323-01]	4.73
CCOC(=O)c1c(CN2CCOCC2)n(-c2ccccc2)c2cc(Br)c(O)cc12 [MLS000530556-01]	2.99
Clc1ccc(NNc2ccnc3cc(Cl)ccc23)cc1 [MLS000537447-01]	1.5
O=C(Nc1nc2ccccc2n1Cc1ccccc1)c1ccc(COc2ccccc2[N+](=O)[O-])o1 [MLS000543610-01]	16.8
COC(=O)c1cc(C(=O)c2ccc(Cl)cc2Cl)cn1C [MLS000546235-01]	13.3
CN(C)CC1CSCCC1(O)c1ccccc1Cl (stereo not shown) [MLS000546783-01]	5.96
O=C(Nc1ccsc1C(=O)NC1CCCCC1)c1ccc(F)cc1 [MLS000546987-01]	6.68
CCc1nn2cc(C(=O)c3cc(C)ccc3O)cnc2c1-c1ccc(F)cc1 [MLS000548735-01]	9.44
CN1CCCC1CCNS(=O)(=O)c1ccc(Br)cc1 (stereo not shown) [MLS000549971-01]	5.96
O=c1c2c([nH]c3ccccc13)CCCC2 [MLS000551004-01]	6.68
CCCC1=[N+](CC(=O)c2ccccc2)CCn2c(C)ccc21 [MLS000551171-01]	15
Cn1c(SCC(=O)N2c3ccccc3CCc3ccccc32)nnc1-c1cc2ccccc2cc1O [MLS000553503-01]	8.41
CC1CCc2cc(F)ccc2N1C(=O)CSc1nnc2c(n1)[nH]c1ccc(F)cc12 (stereo not shown) [MLS000556689-01]	8.41
CCc1ccc2c(c1)cc(CN(/C(S)=N/c1cccc(C)c1)C1CC1)c1nnnn12 [MLS000556704-01]	3.35
CCc1c(C)c(C#N)c2nc3ccccc3n2c1NCC1CCCO1 (stereo not shown) [MLS000556827-01]	2.99
C[N+](C)(C)CCN(Cc1ccc(Cl)cc1)c1ccccn1 [MLS000556881-01]	9.44
CN1C(=O)C2(c3ccccc31)N(C)CC(c1ccccc1)C21SC(=S)N(Cc2ccco2)C1=O (stereo not shown) [MLS000559203-01]	13.3
CCCCNC(=O)c1onc(CSc2nc3ccccc3[nH]2)c1C(=O)NCCCC [MLS000561096-01]	5.31
O=C(NCC1CCCCC1)C12CN(Cc3ccccc3)CC1C(c1cccc([N+](=O)[O-])c1)=NO2 (stereo not shown) [MLS000561441-01]	6.68
